The term IC50 denotes the concentration that gives 50% inhibition.

The values below come from article PMC12111648, “New Dimethoxyaryl-Sesquiterpene Derivatives with Cytotoxic Activity Against MCF-7 Breast Cancer Cells: From Synthesis to Topoisomerase I/II Inhibition and Cell Death Mechanism Studies” (International Journal of Molecular Sciences, 2025).

Entries after “also recorded” stand apart in the source; their conditions may differ. Read-outs that look alike come from different tables or passages of the source.

For series [1], the system named is MCF-7 cells. The settings on record: cited from earlier work.
The test system of series [2] is MCF-7 cells. Put plainly: MTT cytotoxicity assay on MCF-7 cells. In kind it is cell-based, human. The following applies: for IC50: Homo sapiens, MCF7, MTT, 48 h incubation, IC50 ± SD, three experiments in triplicate; for Selectivity Index (SI): SI = IC50 on MCF-10 cells/IC50 on MCF-7 cells. The method, then:
(§1) In this study, we wondered whether semi-synthetic compounds have potential antitumoral properties against BC. Therefore, we were interested in investigating the effect of the compounds on the MCF-7 cell line. Firstly, we studied the effect on cell viability using a colorimetric MTT assay, which was performed to quantify the cytotoxic activity; each compound was evaluated at different concentrations (500−100−20−4−0.8−0.16−0.032−0 µM). Daunorubicin was also used as a positive control for comparison with a reference drug. […] Although the MCF-10 cell line provides a useful selectivity model, it may not fully represent the varying sensitivities of different normal cell types within a multicellular organism. The SI value indicates the ratio of toxicity in mammalian host cells to that in a tumoral cell. The data obtained in response to different concentrations of compounds were used to calculate the IC50 and corresponding SI values, as shown in Table 1.
(§2) The American Type Culture Collection (Rockville, MD, USA) supplied the following experimental cell lines: MCF-7, a human breast cancer cell line, and MCF-10A, a human epithelial breast cell line (ATCC N° CRL-10317). Both cell lines were grown in DMEM-F12 medium containing 10% FCS, 100 U/mL penicillin, 100 μg/mL streptomycin, and 1 mM glutamine. The cells were seeded at a concentration of 100 μL per well at a plating density of 3 × 10^3 cells/well and incubated for 24 h at 37 °C under 5% humidified CO2 to enable attachment. The cells were then treated with varying concentrations of synthesized compounds for […] under the same conditions. The compound stock solution was prepared in DMSO, and the final concentration of DMSO was kept at 0.1%. Control cultures were treated with only 1% ethanol.
(§3) Cells from the MCF-7 and MCF-10 lines were seeded into 96-well plates at a density of 1 × 10^4 per well. After 24 h, the compounds were added at increasing concentrations (500–100–20-4–0.8–0.16–0.032–0 µM), and the cells were incubated at 37 °C in a humidified 5% CO2/95% air mixture for 48 h. Following incubation, the cells were washed twice with PBS, and 100 μL of 0.5 mg/mL MTT solution was added to each well. After 2 h of incubation, the MTT solution was removed, and the formazan crystals were dissolved in 50 μL of DMSO per well. Absorbance was then measured at 570 nm using a microplate ELISA reader. IC50 values, determined from three independent experiments conducted in triplicate, were calculated using SigmaPlot® software (version 11.0). The selectivity index (SI) of each compound in each cell line was determined by calculating the ratio of the IC50 values for MCF-10 and cancer cell lines. Compounds were considered selective if SI values were equal to or greater than 3 [46].
On the technique in general: Tetrazolium assays rely on reduction of a dye to a coloured formazan, in cell work by metabolically active cells.

Series [3] deals with MCF-10 cells. Put plainly: MTT cytotoxicity assay on non-tumoral MCF-10 cells. The format is cell-based, human. The settings on record: Homo sapiens, MCF10, 48 h incubation, IC50 ± SD, three experiments in triplicate. As to the method:
as §1, §2, §3

Series [4] concerns MCF-7 cells. Put plainly: Intracellular ROS generation (DCFH2-DA, flow cytometry). In kind it is cell-based, human. The settings on record: MCF-7, compounds at respective IC50, 24 h, versus control. As to the method: An increase in intracellular ROS may be one of the factors that contribute to the cytotoxicity of certain compounds in cancer cell lines. In fact, ROS and mitochondrial damage are often associated with the induction of cell death. […] DCF fluorescence was then measured by flow cytometry. The difference in the percentage of DCF-positive cells between treated and control cells was used to indicate an increase in intracellular ROS, as shown in Figure 4.
Reactive oxygen species (ROS) production was measured using flow cytometry. Cells were treated with compounds (each with respective IC50 values) for 24 h, with untreated cells serving as the negative control and cells treated with 1 µM daunorubicin as the positive control. Following the treatment, intracellular ROS levels were visualized after incubation with 2′,7′-dichlorodihydro-fluorescein diacetate (DCFH2-DA) at a final concentration of 10 μM for the last 30 min of the treatment period. After incubation, the cells were washed with PBS, trypsinized, and centrifuged, and the resulting pellet was resuspended in PBS and immediately examined by flow cytometry.
Figure 4 The effect of the compound’s treatment on intracellular ROS generation. Cells were treated with compounds (respective IC50 values for each compound for 24 h), and intracellular ROS levels were determined in the human cancer cell line MCF-7 by flow cytometry using dichloro-fluorescein diacetate (DCFH2-DA). * p < 0.05 versus control cells (Ctrl). The data represent the means ± S.D. of at least three experiments with triplicate samples.
On the technique in general: In flow cytometry, cells or beads pass a laser one at a time.

In series [5] the test system is MCF-7 cells. Put plainly: Mitochondrial membrane potential (rhodamine 123, flow cytometry). The format is cell-based, human. The following applies: MCF-7, compounds at respective IC50, 24 h. The method, then:
To determine whether the toxic effects of selected sesquiterpenes (10c, 11c, 12c, 13c, and 14c) are due to the production of ROS and subsequent apoptosis, the mitochondrial membrane potential was measured. With this aim, a protocol using rhodamine 123 staining and flow cytometry was established to study the effect of the selected compounds [40]. The accumulation of rhodamine 123 in mitochondria is associated with the maintenance of the electrochemical gradient in mitochondria. Daunorubicin was used as a positive control (C+). The results are presented as the percentage of cells with increased mitochondrial membrane permeability.
Rhodamine 123 (Rho123), a positively charged dye that reacts to voltage changes and enters the mitochondria, was utilized to detect modifications in the mitochondrial membrane potential. The cells were exposed to specific compounds (IC50 values for each compound) for 24 h. Control cells that had not been treated were used as negative control, while cells treated with daunorubicin at a concentration of 1 µM served as the positive control. Following this, the cells were incubated with Rho123 (at a concentration of 1 µM) in darkness for an hour at 37 °C. Afterward, the medium was taken out, and the cells were washed with PBS. The cells were then dissociated using trypsin and collected through centrifugation for 10 min at 1500×g. The supernatant was thrown away, and the cell pellets were resuspended in PBS and analyzed using flow cytometry with the FL1 filter. The results are shown as the percentage of Rho123-stained cells.
Figure 5 The effect of the compound’s treatment on mitochondrial membrane potential. […] The data represent the means ± S.D. of at least three experiments with triplicate samples.

For series [6], the system named is caspases-3/7 in MCF-7 cells. Put plainly: Caspase-Glo 3/7 assay. In kind it is cell-based, human. The following applies: MCF-7, 50 μM, 24 h, versus control. As to the method: Since ROS levels were increased in the MCF-7 cancer cell line in response to the compounds, it is important to determine whether this effect is associated with the onset of apoptotic cell death. […] Cells were treated with the selected compounds at 50 μM for 24 h, incubated in situ with the Caspase-Glo 3/7 marker assay, and then analyzed in a luminometer.
The activity of caspase 3/7 in MCF-7 cells treated with the compounds was determined using a Caspase-Glo-3/7 Assay kit from Promega (UK). This assay is a homogenous and luminescent method that measures the activity of caspase-3 and -7, which are essential for apoptosis. MCF-7 cells (1 × 10^4 cells per well) were seeded in a 96-well plate and incubated overnight. The cells were then treated for 24 h with the compounds (50 µM) and a blank as a control. After treatment, the Caspase-Glo® 3/7 reagent was prepared according to the manufacturer’s instructions. Specifically, 100 μL of the reagent was added to 100 μL of culture medium containing the treated cells in each well, and the mixture was incubated for 1 h at room temperature in the dark. Luminescence was then measured using a luminometer (Berthold Sirius Single Tube Luminometer). The fold change in caspase activity was calculated by expressing the average luminescence of each treatment as a fold change with respect to the average luminescence of the negative control.
Figure 6 The effect of the compounds on caspases-3/7 activity in cells from the human breast cancer cell line MCF-7. Caspases-3/7 activity was determined in MCF-7 cells following treatment with the compounds (50 μM) for 24 h. The data are reported as the ratio of activity in treated cells vs. the control (1% ethanol), which were arbitrarily assigned a unitary value. * p < 0.05 versus control cells (Ctrl). The data are reported as the mean values ± S.D. of three different experiments with samples in triplicate.

The next series relates to human topoisomerase II. Put plainly: TOP2 DNA relaxation / plasmid linearization assay. The settings on record: 20 μM. The format is biochemical. As to the method:
The ability to relax DNA conformations is a central function of topoisomerase enzymes. Several studies have associated some proapoptotic compounds with the ability to inhibit topoisomerase enzymes. The ability of the selected compounds to inhibit TOP1 or TOP2 activity was determined. In this experiment, daunorubicin was used as a positive control for TOP1/2 inhibition, as previously reported. […] It is important to note the potential for cardiotoxicity associated with some TOP2 inhibitors, which highlights the relevance of assessing compound 14c’s interaction with TOP2B. […] Future studies should include assays to evaluate the specific activity of 14c against both TOP2A and TOP2B to provide a more comprehensive safety profile, as isoform-selective TOP2 inhibitors may offer a therapeutic advantage by reducing adverse effects.
Topoisomerase II-mediated DNA cleavage was assessed using a plasmid linearization assay adapted from previously described methods. Supercoiled plasmid DNA (200 ng final concentration) was incubated with purified human topoisomerase II (10 U) in the presence or absence of test agents or a positive control. Reactions were carried out in a total volume of 20 μL, composed of 2 μL of 10× topoisomerase II reaction buffer, an appropriate volume of compound or control, and nuclease-free water. ATP (final concentration adjusted from a 20 mM stock) was freshly added to the reaction buffer immediately prior to use. Reactions were initiated by the addition of topoisomerase II and incubated at 37 °C for 30 min. To terminate the reactions, 2 μL of 10% SDS was added directly to the tubes while still in the 37 °C water bath, followed by the addition of 1.5 μL of 250 mM tetrasodium EDTA (pH 8.0) and 2 μL of proteinase K solution (0.8 mg/mL). […]
Figure 7 The effect of sesquiterpene aryl esters on TOP1- and TOP2-induced DNA relaxation was assessed. (A) The TOP1 inhibition assay evaluated the compounds (10c, 11c, 12c, 13c, and 14c) at a concentration of 20 μM in a DNA relaxation assay. […]

The subject of series [7] is MCF-10 cells. The arrangement: method as in PMID 25412045. The settings on record: reference drug; cited from earlier work.

With `CC1=CC[C@H]2C(C)(C)CCC[C@]2(C)[C@H]1CO` [(-)-drimenol], the “cytotoxicity of the base sesquiterpene system” value in the series with MCF-7 cells [1] (as previously reported by our group) was “inactive”.

For `COc1ccc([C@@H](O)[C@H]2C(C)=CCC3C(C)(C)CCC[C@@]32C)cc1OC` (stereo partly drawn) [Compound 10c, (1S)-(3,4-Dimethoxyphenyl)((1S,8aS)-2,5,5,8a-tetramethyl-1,4,4a,5,6,7,8,8a-octahydronaphthalen-1-yl) methanol], the IC50 amounted to 25.1 ± 2.2 µM in the series with MCF-7 cells [2] and 248 ± 42.3 µM with MCF-10 cells [3]. For the same compound, the “Selectivity Index (SI)” value in the series on MCF-7 cells [2] stood at 9.9. In the series on MCF-7 cells [4], the “intracellular ROS levels (DCF fluorescence)” value (from here on “intracellular ROS levels”) is “significantly increased”. The mitochondrial membrane permeability entry in the series on MCF-7 cells [5] is reported as “did not increase”. For the same compound, in series [6], the caspases-3/7 activity result is “considerably enhanced”.

Regarding `COc1ccc(C[C@H]2C(C)=CCC3C(C)(C)CCC[C@@]32C)cc1OC` (stereo partly drawn) [Compound 11c, (4aS,5S)-5-(3,4-Dimethoxybenzyl)-1,1,4a,6-tetramethyl-1,2,3,4,4a,5,8,8a-octahydronaphthalenene], in the series with MCF-7 cells [2], the IC50 was 13.5 ± 1.8 µM and the “Selectivity Index (SI)” value is 6.5. In the series on MCF-10 cells [3], the IC50 came to 87.7 ± 17.8 µM. In the series with MCF-7 cells [4], the “intracellular ROS levels” value is on record as “significantly increased; also recorded: most effective”. Besides, the mitochondrial membrane permeability result with MCF-7 cells [5] is “did not increase”. The caspases-3/7 activity entry in series [6] is reported as “considerably enhanced”.

As for `COc1ccc(C(=O)[C@H]2C(C)=CCC3C(C)(C)CCC[C@@]32C)cc1OC` (stereo partly drawn) [Compound 12c, (3,4-Dimethoxyphenyl)((1S,8aS)-2,5,5,8a-tetramethyl-1,4,4a,5,6,7,8,8a-octahydronaphthalen-1-yl)methanone], in the series with MCF-7 cells [2], inhibition was half-maximal at 30.1 ± 6.6 µM (IC50) and the “Selectivity Index (SI)” value is 4.3. The compound further gave an IC50 in the series on MCF-10 cells [3] of 131 ± 29.3 µM. Moreover, the “intracellular ROS levels” value with MCF-7 cells [4] is listed as “significantly increased”. Moreover, the mitochondrial membrane permeability result in the series with MCF-7 cells [5] is listed as “did not increase”. Also, the caspases-3/7 activity result in series [6] was “considerably enhanced”.

Turning to `COc1cccc2c1C(=O)c1c(O)c3c(c(O)c1C2=O)C[C@@](O)(C(C)=O)C[C@@H]3O[C@H]1C[C@H](N)[C@H](O)[C@H](C)O1` [Daunorubicin, reference compound], the “Selectivity Index (SI)” value in the series with MCF-7 cells [2] was 28. Besides, in the series with human topoisomerase II, the “inhibition of TOP2-induced DNA relaxation” value was “modified the TOP2-induced DNA relaxation pattern”. For the same compound, the IC50 in the series with MCF-7 cells [1] (reference drug) is 0.33 ± 0.02 µM; in the series with MCF-10 cells [7] it was 9.32 ± 1.01 µM.
